# Assays:
# [1] = Particle size distribution (PSD), laser particle size analyzer, wet process; format: physicochemical; details: dispersion medium Isopar G
# Procedure: The particle size distribution test in the present disclosure is acquired by the S3500 laser particle size analyzer of Microtrac. Microtrac S3500 is equipped with the Sample Delivery Controller. The test is carried out by wet process, and the dispersion medium is Isopar G. The parameters are as follow:
# D10: The D10 describes the diameter where 10% of the distribution has a smaller particle size.
# D50: The D50 describes the diameter where 50% of the distribution has a smaller particle size. The median is also called D50.
# D90: The D90 describes the diameter where 90% of the distribution has a smaller particle size. Unless otherwise specified, the following examples were conducted at room temperature.
# [2] = Hygroscopicity by dynamic vapor sorption (DVS); format: physicochemical; details: for Weight gain 10% RH / Weight gain 20% RH / Weight gain 30% RH / Weight gain 40% RH / Weight gain 50% RH / Weight gain 60% RH: DVS 0-95%-0 RH cycle at 25° C.
# Procedure: Dynamic Vapor Sorption (DVS) is measured via a SMS (Surface Measurement Systems Ltd.) intrinsic DVS. Its control software is DVS-Intrinsic control software, and its analysis software is DVS-Intrinsic Analsis software. Typical Parameters for DVS test are as follows:
# Gas and flow rate: N2, 200 mL/min
# RH range: 0% RH to 95% RH
# Hygroscopicity of form III was measured in dynamic vapor sorption (DVS) instrument using 7.34 mg of form III obtained from example 6. The DVS plot is shown in FIG. 20, and the weight gain of form III at 80% RH is 6.48%.
# 6.5 mg of prior form 7 was placed in a DVS instrument, and subjected to a cycle of 0-95%-0RH at 25° C., the DVS plot is shown in FIG. 23.
# 9.2 mg of Form I was placed in a DVS instrument, and subjected to a cycle of 0-95%-0RH at 25° C., the DVS plot is shown in FIG. 24.
# 3.6 mg of Form II was placed in a DVS instrument and subjected to a cycle of 0-95%-0RH at 25° C., the DVS plot is shown in FIG. 25.
# [3] = Solubility of saturated solutions in acetone and tetrahydrofuran by HPLC; details: saturated solution, after 24 hours
# [4] = Storage stability (purity and XRPD crystalline form after storage); format: physicochemical
# Procedure: Form II obtained from example 3 was stored under 25° C./60% RH for 90 days. XRPD patterns were collected before and after stored for 15 days, 30 days and 90 days.
# Form III was stored under 25° C./60% RH and 40° C./75% RH for 300 days. XRPD patterns were collected after stored for 15 days, 30 days and 300 days.
# [5] = cited from earlier work
# [6] = Slurry/stirring in H2O/IPA solvent systems with different water activities, final form by XRPD; format: physicochemical; details: 6 days
# Procedure: Prior form 7 as starting material was stirred at room temperature in solvent systems with different water activities for 6 days, and tested.
# Prior form 3 was stirred at room temperature in solvent systems with different water activities for 4 days, then the solid was tested.
# [7] = listed as Form I of the present disclosure
# [8] = listed as Form II of the present disclosure
smiles,measurement,setting,value
"c1cn2cc(-c3ccc4cn[nH]c4c3)nc(Nc3ccc(N4CCOCC4)cc3)c2n1 [Form I, 6-(1H-indazol-6-yl)-N-[4-(4-morpholinyl)phenyl] imidazo [1,2-a]pyrazin-8-amine]",D(10),[1]; [7],10.23 μm
same,D(50),[1]; [7],62.54 μm
same,D(90),[1]; [7],240.0 μm
same,Weight gain 10% RH,[2]; [7],0.69%
same,Weight gain 20% RH,[2]; [7],0.99%
same,Weight gain 30% RH,[2]; [7],1.33%
same,Weight gain 40% RH,[2]; [7],1.82%
same,Weight gain 50% RH,[2],2.82%
same,Weight gain 60% RH,[2]; [7],8.13%
same,Solubility,[3]; Acetone,61 µg/mL
same,Solubility,[3]; Tetrahydrofuran,48 µg/mL
"c1cn2cc(-c3ccc4cn[nH]c4c3)nc(Nc3ccc(N4CCOCC4)cc3)c2n1 [Form II, 6-(1H-indazol-6-yl)-N-[4-(4-morpholinyl)phenyl] imidazo [1,2-a]pyrazin-8-amine]",Crystalline form after storage,"[4]; 25° C./60%RH, 15 days",Form II
same,Purity %,"[4]; 25° C./60%RH, 15 days",99.50%
same,Crystalline form after storage,"[4]; 25° C./60%RH, 30 days",Form II
same,Purity %,"[4]; 25° C./60%RH, 30 days",99.78%
same,Crystalline form after storage,"[4]; 25° C./60%RH, 90 days",Form II
same,Purity %,"[4]; 25° C./60%RH, 90 days",99.52%
same,Crystalline form after storage,"[4]; 25° C./60%RH, initial",Form II
same,Purity %,"[4]; 25° C./60%RH, initial",99.64%
same,D(10),[1]; [8],4.15 μm
same,D(50),[1]; [8],27.48 μm
same,D(90),[1]; [8],128.7 μm
same,Weight gain 10% RH,[2]; [8],1.41%
same,Weight gain 20% RH,[2]; [8],1.98%
same,Weight gain 30% RH,[2]; [8],2.34%
same,Weight gain 40% RH,[2]; [8],2.65%
same,Weight gain 50% RH,[2]; [8],2.95%
same,Weight gain 60% RH,[2]; [8],3.35%
same,weight gain at 0-70% RH (in words),"[2]; DVS at 25° C., 0-70% RH",doesn't show obvious weight gain
same,Solubility,[3]; Acetone,26 µg/mL
same,Solubility,[3]; Tetrahydrofuran,18 µg/mL
"c1cn2cc(-c3ccc4cn[nH]c4c3)nc(Nc3ccc(N4CCOCC4)cc3)c2n1 [Form III, 6-(1H-indazol-6-yl)-N-[4-(4-morpholinyl)phenyl] imidazo [1,2-a]pyrazin-8-amine]",Crystalline form after storage,"[4]; 25° C./60%RH, 15 days",Form III
same,Purity %,"[4]; 25° C./60%RH, 15 days",99.71%
same,Crystalline form after storage,"[4]; 25° C./60%RH, 30 days",Form III
same,Purity %,"[4]; 25° C./60%RH, 30 days",99.78%
same,Crystalline form after storage,"[4]; 25° C./60%RH, 300 days",Form III
same,Purity %,"[4]; 25° C./60%RH, 300 days",99.56%
same,Crystalline form after storage,"[4]; 25° C./60%RH, initial",Form III
same,Purity %,"[4]; 25° C./60%RH, initial",99.82%
same,Crystalline form after storage,"[4]; 40° C./75%RH, 15 days",Form III
same,Purity %,"[4]; 40° C./75%RH, 15 days",99.68%
same,Crystalline form after storage,"[4]; 40° C./75%RH, 30 days",Form III
same,Purity %,"[4]; 40° C./75%RH, 30 days",99.73%
same,Crystalline form after storage,"[4]; 40° C./75%RH, 300 days",Form III
same,Purity %,"[4]; 40° C./75%RH, 300 days",99.47%
same,Crystalline form after storage,"[4]; 40° C./75%RH, initial",Form III
same,Purity %,"[4]; 40° C./75%RH, initial",99.82%
same,weight gain at 80% RH,"[2]; DVS, 25° C., 80% RH",6.48%
same,crystalline form after DVS test (XRPD),[2]; solid collected after DVS,doesn't change
"CS(=O)(=O)O.CS(=O)(=O)O.c1cn2cc(-c3ccc4cn[nH]c4c3)nc(Nc3ccc(N4CCOCC4)cc3)c2n1 [Prior form 7, reference compound]",weight gain at 80% RH (prior crystalline forms),[5]; 80% RH,~20%
same,hygroscopicity under various humidity conditions,[5]; various humidity conditions,very high
same,D(10),[1],3.41 μm
same,D(50),[1],9.37 μm
same,D(90),[1],37.69 μm
same,Weight gain 10% RH,[2],1.68%
same,Weight gain 20% RH,[2],2.78%
same,Weight gain 30% RH,[2],4.61%
same,Weight gain 40% RH,[2],10.04%
same,Weight gain 40% RH,[2]; listed as prior form 7,10%
same,Weight gain 50% RH,[2],11.00%
same,Weight gain 60% RH,[2],11.83%
same,Final crystalline form,"[6]; H2O/IPA = 1:99, water activity 0.12, room temperature",Form III of the present
same,Final crystalline form,"[6]; H2O/IPA = 3:97, water activity 0.3, room temperature",Form III of the present
same,Final crystalline form,"[6]; H2O/IPA = 6:94, water activity 0.5, room temperature",Form III of the present
same,Final crystalline form,"[6]; H2O/IPA = 11:89, water activity 0.7, room temperature",Form III of the present
same,Final crystalline form,"[6]; H2O/IPA = 23:77, water activity 0.9, room temperature",Form III of the present
same,Final crystalline form in all experiments,"[6]; all water activities, room temperature",converted to form III
